This is an account of results in PubChem BioAssay (NCI).

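Grown in 96-well plates, cells were treated for 48 hours with each compound at five concentrations. Insufficient inhibition: endpoint recorded as highest concentration tested. GI50 = concentration required for 50% inhibition of growth. TGI denotes the concentration required for complete inhibition of growth.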 Where only a bound is given, the exact number is not on record here.

Test systems include HCT-15 colon; HOP-92 NSCLC; SN12C renal; SK-MEL-2 melanoma; K-562 leukemia; OVCAR-8 ovarian; NCI-H226 lung; IGROV1 ovarian; COLO 205 colon.
Experiment in all cases: growth of human tumour cells (NCI), 48 h

In the case of `NS(=O)(=O)c1ccc(-n2nc(-c3ccc(Cl)cc3)cc2-c2cc(O)ccc2O)cc1`, the GI50 with HCT-15 colon is 6.28 µM; with HOP-92 NSCLC it was 16 µM; in the experiment with SN12C renal it was 8.11 µM; in the experiment on SK-MEL-2 melanoma, 33.5 µM; in the experiment on K-562 leukemia it was 4.9 µM; with OVCAR-8 ovarian, 13.3 µM. The GI50 is 10.1 µM with NCI-H226 lung and 25.4 µM in the experiment with IGROV1 ovarian. Also, the TGI in the experiment with HCT-15 colon was 19.2 µM; in the experiment with HOP-92 NSCLC it was 38.9 µM; with SN12C renal, 20.6 µM; in the experiment with SK-MEL-2 melanoma, greater than 100 µM; in the experiment with K-562 leukemia, 21.2 µM; in the experiment with OVCAR-8 ovarian, 58.6 µM. In addition, the TGI was 24.5 µM with NCI-H226 lung and greater than 100 µM in the experiment with IGROV1 ovarian.

As to `COc1ccc(C23C(=O)c4ccccc4N2O[C@H]2C(=O)N(c4ccccc4)C(=O)[C@H]23)cc1` (stereo partly specified), the TGI in the experiment on HCT-15 colon, in the experiment on HOP-92 NSCLC, in the experiment with SN12C renal, in the experiment with SK-MEL-2 melanoma, with COLO 205 colon and with K-562 leukemia was greater than 100 µM throughout. For the same compound, the TGI with OVCAR-8 ovarian, with NCI-H226 lung and in the experiment on IGROV1 ovarian was greater than 100 µM each time.

In the case of `CCCCCCCCCCCc1nnc(N)o1`, the TGI in the experiment on HCT-15 colon, in the experiment with HOP-92 NSCLC, in the experiment with SN12C renal, in the experiment on SK-MEL-2 melanoma, with COLO 205 colon and in the experiment with K-562 leukemia was greater than 100 µM each time. For the same compound, the TGI in the experiment on OVCAR-8 ovarian, in the experiment on NCI-H226 lung and with IGROV1 ovarian was greater than 100 µM throughout.

Regarding `COc1cc(Br)c(C=Nc2cccc3cc(OC)c(OC)cc23)cc1OC`, the TGI was greater than 100 µM in the experiment with HCT-15 colon; 98.1 µM in the experiment with HOP-92 NSCLC; greater than 100 µM in the experiment on SN12C renal; greater than 100 µM with COLO 205 colon; greater than 100 µM with K-562 leukemia; greater than 100 µM with OVCAR-8 ovarian. Further, the TGI in the experiment with NCI-H226 lung is 82 µM; in the experiment with IGROV1 ovarian, greater than 100 µM.

With `O=C(NCCCCNc1cccccc1=O)OCc1ccccc1`, the TGI in the experiment on HCT-15 colon, with SN12C renal, in the experiment with SK-MEL-2 melanoma, in the experiment on COLO 205 colon, in the experiment with K-562 leukemia and in the experiment on OVCAR-8 ovarian was greater than 100 µM throughout. Further, the TGI in the experiment on NCI-H226 lung and in the experiment on IGROV1 ovarian was greater than 100 µM throughout.

With `O=C(O)CCC(=O)N1c2ccccc2CC1c1c[nH]c2ccccc12` (stereo unspecified), the TGI with HCT-15 colon, in the experiment with HOP-92 NSCLC, in the experiment with SN12C renal, in the experiment on SK-MEL-2 melanoma, in the experiment on COLO 205 colon and with K-562 leukemia was greater than 100 µM in each case. In addition, the TGI with OVCAR-8 ovarian, in the experiment with NCI-H226 lung and in the experiment with IGROV1 ovarian was greater than 100 µM in each case.

Consider `COC1=C(N)C(=O)c2nc(C)ccc2C1=O`, for which the TGI is 3.49 µM in the experiment on HCT-15 colon; 22.1 µM with HOP-92 NSCLC; 3.27 µM in the experiment with SN12C renal; 3.28 µM with SK-MEL-2 melanoma; 3.23 µM in the experiment with COLO 205 colon; greater than 22.5 µM in the experiment on K-562 leukemia. The values for the TGI in the experiment with OVCAR-8 ovarian, in the experiment on NCI-H226 lung and in the experiment on IGROV1 ovarian were 12.4 µM, 2.33 µM and 23.3 µM, respectively.

Take `Cc1nnn[n-]1.N.N.N.N.N.[Cl-].[Co+3]`: the GI50 with HOP-92 NSCLC, with SN12C renal, in the experiment on SK-MEL-2 melanoma, in the experiment with COLO 205 colon, in the experiment with K-562 leukemia and in the experiment with OVCAR-8 ovarian was greater than 100 µM each time. Further, the GI50 in the experiment with NCI-H226 lung is greater than 100 µM; in the experiment on IGROV1 ovarian, 2.88 µM. Moreover, the TGI in the experiment on HOP-92 NSCLC, in the experiment on SN12C renal, with SK-MEL-2 melanoma, in the experiment with COLO 205 colon, with K-562 leukemia and with OVCAR-8 ovarian was greater than 100 µM in each case. Also, the TGI with NCI-H226 lung was greater than 100 µM; with IGROV1 ovarian it was 85 µM.

Consider `CC1(C)O[C@H]2[C@H](O)C[C@](O)(CO)C[C@H]2O1`, for which the TGI in the experiment with HCT-15 colon, in the experiment on HOP-92 NSCLC, in the experiment with SN12C renal, with SK-MEL-2 melanoma, in the experiment on COLO 205 colon and in the experiment with K-562 leukemia was greater than 100 µM in each case. The TGI in the experiment on OVCAR-8 ovarian, with NCI-H226 lung and in the experiment with IGROV1 ovarian was greater than 100 µM in each case.

In the case of `CCOC(=O)c1nn2c(nc1=O)sc1ccc3ccccc3c12`, the TGI in the experiment with HCT-15 colon, in the experiment on HOP-92 NSCLC, in the experiment with SN12C renal, in the experiment on SK-MEL-2 melanoma, with COLO 205 colon and in the experiment on K-562 leukemia was greater than 100 µM each time. For the same compound, the TGI in the experiment on OVCAR-8 ovarian, in the experiment on NCI-H226 lung and in the experiment with IGROV1 ovarian was greater than 100 µM in each case.

Consider `CCN(CC)c1c(C(=O)/C=C/c2ccc(Cl)cc2)c(-c2ccccc2)nn(C)c1=O`, for which the TGI is 3.31 µM in the experiment on HCT-15 colon; 4.33 µM in the experiment on HOP-92 NSCLC; 4.59 µM in the experiment with SN12C renal; 3.62 µM in the experiment with SK-MEL-2 melanoma; 4.01 µM in the experiment with COLO 205 colon; 7.27 µM in the experiment with K-562 leukemia. The results for the TGI in the experiment with OVCAR-8 ovarian, in the experiment with NCI-H226 lung and with IGROV1 ovarian were 3.1 µM, 4.4 µM and 4.21 µM, respectively.

Regarding `O=[N+]([O-])c1ccc(C[P+](c2ccccc2)(c2ccccc2)c2ccccc2)cc1`, the TGI in the experiment on HCT-15 colon, in the experiment with SN12C renal, in the experiment on SK-MEL-2 melanoma, in the experiment on COLO 205 colon, in the experiment with K-562 leukemia and with OVCAR-8 ovarian was greater than 100 µM each time. Further, the TGI in the experiment with NCI-H226 lung and with IGROV1 ovarian was greater than 100 µM in each case.

Regarding `O=C(O)CCCSC(=O)Nc1ccc(N=Nc2ccccc2)cc1`, the TGI in the experiment with HCT-15 colon, in the experiment on SN12C renal, in the experiment on SK-MEL-2 melanoma, in the experiment with COLO 205 colon, in the experiment on K-562 leukemia and in the experiment on OVCAR-8 ovarian was greater than 100 µM throughout. Further, the TGI in the experiment on NCI-H226 lung was greater than 100 µM.
